Molecular target: T1, horseradish peroxidase (HRP) (Armoracia rusticana, UniProt P00433)
T1 construct: gene PRXC1A; commercial horseradish peroxidase
T1 sequence (P00433 31-338): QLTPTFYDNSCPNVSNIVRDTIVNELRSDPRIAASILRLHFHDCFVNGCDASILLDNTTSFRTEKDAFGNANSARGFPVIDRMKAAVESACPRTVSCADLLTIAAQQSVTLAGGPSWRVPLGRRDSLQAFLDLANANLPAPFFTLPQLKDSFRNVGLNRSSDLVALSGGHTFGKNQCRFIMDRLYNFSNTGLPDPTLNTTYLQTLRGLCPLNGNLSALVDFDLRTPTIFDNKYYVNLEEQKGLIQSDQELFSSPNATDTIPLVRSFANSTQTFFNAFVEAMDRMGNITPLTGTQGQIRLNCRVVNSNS
Test: UV-vis absorption difference spectra (data not shown)
Format: binding

How did the “UV-vis absorption difference spectra (data not shown)” value turn out when CC(=O)O [acetate] was run?
Its value is “both HRP and PKS demonstrated similar effects with acetate in the current study (data not shown)”.

Source: article PMC12515563, “Kinetic, Spectral, and Structural Characterization of a Heme-Containing Peroxidase From the Skin of Cucurbita maxima” (Biochemistry Research International, 2025)
